Read-outs that look alike come from different tables or passages of the source.
How the values were obtained:
A549 = assay: 72-h MTT cytotoxicity assay, A549; format: cell-based, human; settings: Table 1, 72 h
Description: In short: cells were seeded into 96-well plates according to doubling time and incubated overnight at 37° C. Test compounds were made up in DMSO and a 1/3 dilution series prepared in 100 μL cell media, added to cells (in triplicates) and incubated for 72 ho at 37° C. MTT was made up as a stock of 5 mg/mL in cell media and filter-sterilised. Media was removed from cells followed by a wash with 200 μL PBS. MTT solution was then added at 20 μL per well and incubated in the dark at 37° C. for 4 h. MTT solution was removed and cells again washed with 200 μL PBS. MTT dye was solubilised with 200 μL per well of DMSO with agitation.

Saos-2 = assay: 72-h MTT cytotoxicity assay, Saos-2; format: cell-based; settings: Homo sapiens, SAOS-2, read-out: 72-h MTT in vitro IC50 (μM) Saos-2; Table 1; 72 h
Description: (§1) The compounds from the examples above were subjected to a standard cellular proliferation assay using human tumour cell lines obtained from the ATCC (American Type Culture Collection, 10801 University Boulevard, Manessas, Va. 20110-2209, USA). Standard 72-h MTT (thiazolyl blue; 3-[4,5-dimethylthiazol-2-yl]-2,5-diphenyltetrazolium bromide) assays were performed (Haselsberger, K.; Peterson, D. C.; Thomas, D. G.; Darling, J. L. Anti Cancer Drugs 1996, 7, 331-8; Loveland, B. E.; Johns, T. G.; Mackay, I. R.; Vaillant, F.; Wang, Z. X.; Hertzog, P. J. Biochemistry International 1992, 27, 501-10). In short: cells were seeded into 96-well plates according to doubling time and incubated overnight at 37° C. Test compounds were made up in DMSO and a 1/3 dilution series prepared in 100 μL cell media, added to cells (in triplicates) and incubated for 72 ho at 37° C. MTT was made up as a stock of 5 mg/mL in cell media and filter-sterilised. Media was removed from cells followed by a wash with 200 μL PBS. MTT solution was then added at 20 μL per well and incubated in the dark at 37° C. for 4 h. MTT solution was removed and cells again washed with 200 μL PBS. MTT dye was solubilised with 200 μL per well of DMSO with agitation.

HT29 = assay: 72-h MTT cytotoxicity assay, HT29; format: cell-based; settings: Homo sapiens, HT-29, read-out: 72-h MTT in vitro IC50 (μM) HT29; Table 1; 72 h
Description: as §1

CDK2/cyclin E = biological target: T1, CDK2/cyclin E (Homo sapiens, UniProt P24941); assay: Kinase assay CDK2/cyclin E; format: biochemical; settings: Table 1; read-out: Kinase inhibition, IC50 (μM) CDK2/E
T1 construct: His6

CDK4/cyclin D1 = CDK4/cyclin D1 (Homo sapiens, UniProt P11802); assay: Kinase assay CDK4/cyclin D1;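 note: Enzyme: His6-tagged recombinant human CDK4 produced in baculovirus-infected Sf9 insect cells and purified by metal-chelate chromatography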
[1] = Homo sapiens, A549, read-out: 72-h MTT in vitro IC50 (μM) A549
[2] = read-out: Kinase inhibition, IC50 (μM) CDK4/D1, Table 1

Sequence of CDK4/cyclin D1 (P11802 whole entry): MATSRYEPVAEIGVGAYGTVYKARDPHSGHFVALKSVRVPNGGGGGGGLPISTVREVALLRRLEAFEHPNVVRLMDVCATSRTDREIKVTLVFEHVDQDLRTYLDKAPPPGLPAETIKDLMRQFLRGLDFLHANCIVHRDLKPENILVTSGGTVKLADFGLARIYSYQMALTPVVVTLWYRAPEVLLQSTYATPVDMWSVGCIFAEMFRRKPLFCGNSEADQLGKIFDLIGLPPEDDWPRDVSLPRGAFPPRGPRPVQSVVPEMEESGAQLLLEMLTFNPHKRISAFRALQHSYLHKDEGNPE
Sequence of CDK4/cyclin D1 (P24385 whole entry partner): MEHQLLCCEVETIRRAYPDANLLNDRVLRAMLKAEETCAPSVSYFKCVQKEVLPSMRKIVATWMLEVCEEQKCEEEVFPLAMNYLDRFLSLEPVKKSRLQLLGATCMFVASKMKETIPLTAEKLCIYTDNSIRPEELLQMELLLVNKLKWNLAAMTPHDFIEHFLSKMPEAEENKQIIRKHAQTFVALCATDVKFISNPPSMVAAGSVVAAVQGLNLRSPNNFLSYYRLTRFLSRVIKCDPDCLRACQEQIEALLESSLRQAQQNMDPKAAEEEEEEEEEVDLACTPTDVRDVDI

`Cc1nc(N)sc1-c1ccnc(Nc2cccc([N+](=O)[O-])c2)n1` [Compound 1, [4-(2-Amino-4-methyl-thiazol-5-yl)-pyrimidin-2-yl]-(3-nitro-phenyl)-amine] was tested, and the IC50 (A549; read-out: 72-h MTT in vitro IC50 (μM) A549) was 0.22 µM, the IC50 (Saos-2) was 0.42 µM and the IC50 (HT29) was 0.34 µM.

Work on `Cc1nc(N)sc1-c1ccnc(Nc2ccc(N(C)C)cc2)n1` [Compound 2, N-[4-(2-Amino-4-methyl-thiazol-5-yl)-pyrimidin-2-yl]-N^1,N^1-dimethyl-benzene-1,4-diamine] yielded an IC50 (A549; [1]) of 2.37 µM, an IC50 (Saos-2) of 1.54 µM and an IC50 (HT29) of 2.88 µM.

`Cc1nc(N)sc1-c1ccnc(Nc2ccc(Cl)cc2)n1` [Compound 3, [4-(2-Amino-4-methyl-thiazol-5-yl)-pyrimidin-2-yl]-(4-chloro-phenyl)-amine] was tested, and the IC50 (A549; [1]) was 2.94 µM, the IC50 (CDK2/cyclin E) was 0.43 µM and the IC50 (Saos-2) was 2.61 µM. The IC50 (CDK4/cyclin D1) was 0.46 µM and the IC50 (HT29) was 4.01 µM.

With `Cc1nc(N)sc1-c1ccnc(Nc2ccc(C(F)(F)F)cc2)n1` [Compound 7, [4-(2-Amino-4-methyl-thiazol-5-yl)-pyrimidin-2-yl]-(4-trifluoromethyl-phenyl)-amine] the IC50 (A549; [1]) was 1.03 µM, the IC50 (Saos-2) was 0.65 µM and the IC50 (CDK4/cyclin D1; [2]) was 5.83 µM. It also gave an IC50 (HT29) of 1.26 µM.

Work on `COc1ccc(Nc2nccc(-c3sc(N)nc3C)n2)cc1` [Compound 8, [4-(2-Amino-4-methyl-thiazol-5-yl)-pyrimidin-2-yl]-(4-methoxy-phenyl)-amine] yielded an IC50 (A549; [1]) of 1.55 µM, an IC50 (CDK2/cyclin E) of 0.34 µM and an IC50 (Saos-2) of 1.32 µM. It also gave an IC50 (CDK4/cyclin D1) of 0.42 µM and an IC50 (HT29) of 2.71 µM.

For `Cc1nc(N)sc1-c1ccnc(Nc2cccc(Cl)c2)n1` [Compound 9, [4-(2-Amino-4-methyl-thiazol-5-yl)-pyrimidin-2-yl]-(3-chloro-phenyl)-amine], the IC50 (A549; [1]) was 0.55 µM, the IC50 (CDK2/cyclin E) was 0.02 µM and the IC50 (Saos-2) was 0.43 µM. The IC50 (CDK4/cyclin D1; [2]) was 0.07 µM and the IC50 (HT29) was 0.79 µM.

With `Cc1nc(N)sc1-c1ccnc(Nc2cccc(O)c2)n1` [Compound 13, 3-[4-(2-Amino-4-methyl-thiazol-5-yl)-pyrimidin-2-ylamino]-phenol] the IC50 (A549; [1]) was 0.95 µM, the IC50 (CDK2/cyclin E) was 0.04 µM and the IC50 (Saos-2) was 0.52 µM. The IC50 (CDK4/cyclin D1) was 0.45 µM and the IC50 (HT29) was 2.87 µM.

`Cc1nc(N)sc1-c1ccnc(Nc2ccc(I)c([N+](=O)[O-])c2)n1` [Compound 14, [4-(2-Amino-4-methyl-thiazol-5-yl)-pyrimidin-2-yl]-(4-iodo-3-nitro-phenyl)-amine] was tested, and the IC50 (A549; [1]) was 0.29 µM, the IC50 (CDK2/cyclin E) was 0.2 µM and the IC50 (Saos-2) was 0.31 µM. For the same molecule, the IC50 (CDK4/cyclin D1) was 0.64 µM and the IC50 (HT29) was 0.28 µM.

Work on `Cc1nc(C)c(-c2ccnc(Nc3ccc(CCO)cc3)n2)s1` [Compound 21, 2-{4-[4-(2,4-Dimethyl-thiazol-5-yl)-pyrimidin-2-ylamino]-phenyl}-ethanol] yielded an IC50 (A549; [1]) of 2.79 µM, an IC50 (Saos-2) of 4.37 µM and an IC50 (CDK4/cyclin D1; [2]) of 3.28 µM. For the same molecule, the IC50 (HT29) was 3.61 µM.

With `COc1ccc(Nc2nccc(-c3sc(C)nc3C)n2)cc1OC` [Compound 23, (3,4-Dimethoxy-phenyl)-[4-(2,4-dimethyl-thiazol-5-yl)-pyrimidin-2-yl]-amine] the IC50 (A549; [1]) was 1.57 µM, the IC50 (CDK2/cyclin E) was 0.03 µM and the IC50 (Saos-2) was 2.02 µM. For the same molecule, the IC50 (CDK4/cyclin D1; [2]) was 1.06 µM and the IC50 (HT29) was 1.17 µM.

`COc1ccc(Nc2nccc(-c3sc(C)nc3C)n2)cc1O` [Compound 24, 5-[4-(2,4-Dimethyl-thiazol-5-yl)-pyrimidin-2-ylamino]-2-methoxy-phenol] showed an IC50 (A549; [1]) of 0.44 µM, an IC50 (Saos-2) of 0.16 µM and an IC50 (CDK4/cyclin D1; [2]) of 1.68 µM. For the same molecule, the IC50 (HT29) was 5.47 µM.

`COc1ccc(Nc2nccc(-c3sc(C)nc3C)n2)cc1N(C)C` [Compound 28, N^1-[4-(2,4-Dimethyl-thiazol-5-yl)-pyrimidin-2-yl]-4-methoxy-N^3,N^3-dimethyl-benzene-1,3-diamine] gave an IC50 (A549; [1]) of 2.07 µM, an IC50 (CDK2/cyclin E) of 0.56 µM and an IC50 (Saos-2) of 1.59 µM. It also gave an IC50 (CDK4/cyclin D1) of 2.88 µM and an IC50 (HT29) of 2.23 µM.

`CNc1nc(C)c(-c2ccnc(Nc3ccc(N(C)C)cc3)n2)s1` [Compound 29, N,N-Dimethyl-N′-[4-(4-methyl-2-methylamino-thiazol-5-yl)-pyrimidin-2-yl]-benzene-1,4-diamine] was tested, and the IC50 (A549; [1]) was 0.4 µM, the IC50 (CDK2/cyclin E) was 0.32 µM and the IC50 (Saos-2) was 0.8 µM. For the same molecule, the IC50 (CDK4/cyclin D1) was 0.99 µM and the IC50 (HT29) was 0.6 µM.

In the case of `CNc1nc(C)c(-c2ccnc(Nc3ccc(I)c([N+](=O)[O-])c3)n2)s1` [Compound 30, (4-Iodo-3-nitro-phenyl)-[4-(4-methyl-2-methylamino-thiazol-5-yl)-pyrimidin-2-yl]-amine], the IC50 (A549; [1]) is reported as 0.94 µM, the IC50 (CDK2/cyclin E) is reported as 0.12 µM and the IC50 (Saos-2) is reported as 2.31 µM. The IC50 (CDK4/cyclin D1) was 0.25 µM and the IC50 (HT29) was 1.07 µM.

`Cc1c(-c2ccnc(Nc3ccc(O)cc3)n2)sc(=O)n1C` [Compound 31, 5-[2-(4-Hydroxy-phenylamino)-pyrimidin-4-yl]-3,4-dimethyl-3H-thiazol-2-one] gave an IC50 (A549; [1]) of 0.29 µM, an IC50 (Saos-2) of 0.4 µM and an IC50 (HT29) of 0.87 µM.

With `Cc1c(-c2ccnc(Nc3cccc([N+](=O)[O-])c3)n2)sc(=O)n1C` [Compound 32, 3,4-Dimethyl-5-[2-(3-nitro-phenylamino)-pyrimidin-4-yl]-3H-thiazol-2-one] the IC50 (A549; [1]) was 0.01 µM, the IC50 (Saos-2) was 0.1 µM and the IC50 (HT29) was 0.01 µM.

Molecule `Cc1c(-c2ccnc(Nc3ccc(F)cc3)n2)sc(=O)n1C` [Compound 34, 5-[2-(4-Fluoro-phenylamino)-pyrimidin-4-yl]-3,4-dimethyl-3H-thiazol-2-one] has an IC50 (A549; [1]) of 0.51 µM, an IC50 (Saos-2) of 1.27 µM and an IC50 (HT29) of 0.38 µM.

`Cc1c(-c2ccnc(Nc3ccc(Cl)cc3)n2)sc(=O)n1C` [Compound 35, 5-[2-(4-Chloro-phenylamino)-pyrimidin-4-yl]-3,4-dimethyl-3H-thiazol-2-one] gave an IC50 (A549; [1]) of 0.89 µM, an IC50 (CDK2/cyclin E) of 0.11 µM and an IC50 (Saos-2) of 2.78 µM. For the same molecule, the IC50 (CDK4/cyclin D1) was 1.09 µM and the IC50 (HT29) was 0.4 µM.

Work on `COc1ccc(Nc2nccc(-c3sc(=O)n(C)c3C)n2)cc1` [Compound 36, 5-[2-(4-Methoxy-phenylamino)-pyrimidin-4-yl]-3,4-dimethyl-3H-thiazol-2-one] yielded an IC50 (A549; [1]) of 0.68 µM, an IC50 (CDK2/cyclin E) of 0.25 µM and an IC50 (Saos-2) of 3.53 µM. The IC50 (CDK4/cyclin D1) was 0.96 µM and the IC50 (HT29) was 0.69 µM.

Molecule `Cc1c(-c2ccnc(Nc3cccc(O)c3)n2)sc(=O)n1C` [Compound 37, 5-[2-(3-Hydroxy-phenylamino)-pyrimidin-4-yl]-3,4-dimethyl-3H-thiazol-2-one] has an IC50 (A549; [1]) of 0.66 µM, an IC50 (CDK2/cyclin E) of 0.12 µM and an IC50 (Saos-2) of 0.98 µM. For the same molecule, the IC50 (CDK4/cyclin D1) was 1.41 µM and the IC50 (HT29) was 1.99 µM.

With `Cc1c(-c2ccnc(Nc3ccc(F)c([N+](=O)[O-])c3)n2)sc(=O)n1C` [Compound 38, 5-[2-(4-Fluoro-3-nitro-phenylamino)-pyrimidin-4-yl]-3,4-dimethyl-3H-thiazol-2-one] the IC50 (A549; [1]) was 1.12 µM, the IC50 (CDK2/cyclin E) was 0.12 µM and the IC50 (Saos-2) was 2.17 µM. It also gave an IC50 (CDK4/cyclin D1) of 2.33 µM and an IC50 (HT29) of 0.55 µM.

For `Cc1cc(Nc2nccc(-c3sc(=O)n(C)c3C)n2)ccc1Cl` [Compound 39, 5-[2-(4-Chloro-3-methyl-phenylamino)-pyrimidin-4-yl]-3,4-dimethyl-3H-thiazol-2-one], the IC50 (CDK2/cyclin E) was 1.18 µM and the IC50 (CDK4/cyclin D1; [2]) was 17.9 µM.

Molecule `Cc1cc(Nc2nccc(-c3sc(=O)n(C)c3C)n2)ccc1F` [Compound 41, 5-[2-(4-Fluoro-3-methyl-phenylamino)-pyrimidin-4-yl]-3,4-dimethyl-3H-thiazol-2-one] has an IC50 (A549; [1]) of 2.41 µM, an IC50 (Saos-2) of 7.98 µM and an IC50 (HT29) of 2.19 µM.

With `Cc1ccc(Nc2nccc(-c3sc(=O)n(C)c3C)n2)cc1[N+](=O)[O-]` [Compound 42, 3,4-Dimethyl-5-[2-(4-methyl-3-nitro-phenylamino)-pyrimidin-4-yl]-3H-thiazol-2-one] the IC50 (A549; [1]) was 0.003 µM, the IC50 (Saos-2) was 0.005 µM and the IC50 (HT29) was 0.004 µM.

`Cc1c(-c2ccnc(Nc3ccc(N(C)C)cc3)n2)sc(=O)n1C` [Compound 43, 5-[2-(4-Dimethylamino-phenylamino)-pyrimidin-4-yl]-3,4-dimethyl-3H-thiazol-2-one] showed an IC50 (A549; [1]) of 2.2 µM, an IC50 (Saos-2) of 3.36 µM and an IC50 (CDK4/cyclin D1) of 3.82 µM. It also gave an IC50 (HT29) of 1.69 µM.

`Cc1nc(N(C)C)sc1-c1ccnc(Nc2cccc([N+](=O)[O-])c2)n1` [Compound 52, [4-(2-Dimethylamino-4-methyl-thiazol-5-yl)-pyrimidin-2-yl]-(3-nitro-phenyl)-amine] showed an IC50 (A549; [1]) of 2.47 µM, an IC50 (Saos-2) of 2.57 µM and an IC50 (CDK4/cyclin D1; Kinase inhibition, IC50 (μM) CDK4/D1, Table 1) of 10 µM. It also gave an IC50 (HT29) of 3.41 µM.

`Cc1nc(NCCO)sc1-c1ccnc(Nc2ccc(F)cc2)n1` [Compound 59, 2-{5-[2-(4-Fluoro-phenylamino)-pyrimidin-4-yl]-4-methyl-thiazol-2-ylamino}-ethanol] gave an IC50 (CDK2/cyclin E) of 0.08 µM and an IC50 (CDK4/cyclin D1) of 15 µM.
